*1 amine or outer side, *2 acyl side, *3 side chain or, on linkers, in order; H or OH if unused. Where a SMILES comes first, the peptide text is derived from it. Bridges are numbered along the chain shown (N, C = ends). [ ]: non-standard residue; d: D form. The star is where a group is joined. hPhe(3-Cl-4-CF3) = N[C@@H](CCc1ccc(C(F)(F)F)c(Cl)c1)C(=O)O; NPrPhe(4-CF3) = CCCN[C@@H](Cc1ccc(C(F)(F)F)cc1)C(=O)O; X18 = Cc1ccc(C[C@@H](C(=O)[*:2])N(CC(C)C)[*:1])cc1; X21 = Cc1ccc(C[C@@H](C(=O)[*:2])N(CC2CC2)[*:1])cc1; X46 = CCCCN([C@@H](Cc1ccc(C)cc1)C(=O)[*:2])[*:1]; NPrPhe(4-Me) = CCCN[C@@H](Cc1ccc(C)cc1)C(=O)O; NMePhe(4-Me) = CN[C@@H](Cc1ccc(C)cc1)C(=O)O; X3 = CCCN([C@H](C(=O)[*:2])C1CCCC1)[*:1]; NMeGly(cPent) = CN[C@H](C(=O)O)C1CCCC1; NMeD = CN[C@@H](CC(=O)O)C(=O)O; NMeL = CN[C@@H](CC(C)C)C(=O)O; Morpholide = C1CN(*)CCO1; NMeA = CN[C@@H](C)C(=O)O; NMeAib = CNC(C)(C)C(=O)O; Nle = CCCC[C@H](N)C(=O)O; Piperidide = C1CCN(*)CC1; Ac5c = NC1(C(=O)O)CCCC1; Aze = O=C(O)[C@@H]1CCN1; NEtG = CCNCC(=O)O; Sar = CNCC(=O)O
Columns and labels:
[1] = molecular target: GDP-bound NRAS wild-type protein (Homo sapiens, UniProt P01111); test: Binding to NRAS by surface plasmon resonance (SPR), Single Cycle Kinetics; settings: SPR, GDP-bound NRAS wild-type protein vs GDP-bound KRAS wild-type protein
Chain of GDP-bound NRAS wild-type protein (P01111 whole entry): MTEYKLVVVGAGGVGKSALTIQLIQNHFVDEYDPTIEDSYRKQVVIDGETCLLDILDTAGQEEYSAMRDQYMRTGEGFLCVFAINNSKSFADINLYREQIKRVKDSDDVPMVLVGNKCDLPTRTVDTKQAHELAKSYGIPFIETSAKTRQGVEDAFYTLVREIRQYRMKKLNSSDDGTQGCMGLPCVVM

[2] = molecular target: GDP-bound HRAS wild-type protein (Homo sapiens, UniProt P01112); test: Binding to HRAS by surface plasmon resonance (SPR), Single Cycle Kinetics; settings: SPR, GDP-bound HRAS wild-type protein vs GDP-bound KRAS wild-type protein
Chain of GDP-bound HRAS wild-type protein (P01112 whole entry): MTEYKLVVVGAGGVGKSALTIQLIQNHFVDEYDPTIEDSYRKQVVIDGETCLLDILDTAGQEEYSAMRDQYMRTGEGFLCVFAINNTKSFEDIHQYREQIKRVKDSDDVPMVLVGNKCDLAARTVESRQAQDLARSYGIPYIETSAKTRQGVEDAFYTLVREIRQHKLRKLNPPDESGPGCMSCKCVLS

[3] = molecular target: GDP-bound KRAS wild-type protein (Homo sapiens, UniProt P01116); test: Binding to KRAS by surface plasmon resonance (SPR), Single Cycle Kinetics; settings: SPR Single Cycle Kinetics, GDP-bound KRAS wild-type protein, 1:1 binding model; read-out: KRAS KD
Chain of GDP-bound KRAS wild-type protein (P01116 whole entry): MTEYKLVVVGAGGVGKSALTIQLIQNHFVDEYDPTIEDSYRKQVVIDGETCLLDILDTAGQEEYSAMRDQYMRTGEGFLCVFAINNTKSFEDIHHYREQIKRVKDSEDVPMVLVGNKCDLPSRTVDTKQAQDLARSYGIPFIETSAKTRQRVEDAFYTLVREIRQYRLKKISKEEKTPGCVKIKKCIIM

| Compound | Kd [3] | NRAS/KRAS (ratio of KD value for NRAS to KD value for KRAS) [1] | HRAS/KRAS (ratio of KD value for HRAS to KD value for KRAS) [2] |
| --- | --- | --- | --- |
| CCCC[C@@H]1NC(=O)[C@H](CCc2ccc(C(F)(F)F)c(Cl)c2)NC(=O)CN(C)C(=O)[C@H](Cc2ccc(C)cc2)N(C)C(=O)CN(C)C(=O)CN(C)C(=O)[C@H]([C@@H](C)CC)NC(=O)[C@H](CC(C)C)N(C)C(=O)C[C@@H](C(=O)N2CCCCC2)N(C)C(=O)[C@H](CC(C)C)NC(=O)C(C)(C)N(C)C1=O [PP0049] ([NMeL]I[Sar][Sar][NMePhe(4-Me)][Sar][hPhe(3-Cl-4-CF3)][Nle][NMeAib]L[NMeD]-Piperidide; lactam N-11) | 6.3 nM | C (A compound having a KD ratio of 0.1 or more and less than 3 is denoted as C) | C (A compound having a KD ratio of 0.1 or more and less than 3 is denoted as C) |
| CC[C@H](C)[C@@H]1NC(=O)[C@H](CC(C)C)N(C)C(=O)C[C@@H](C(=O)N2CCOCC2)N(C)C(=O)[C@H](C2CCCC2)N(C)C(=O)C2(CCCC2)NC(=O)[C@@H]2CCCN2C(=O)[C@H](CCc2ccc(C(F)(F)F)c(Cl)c2)NC(=O)CN(C)C(=O)[C@H](Cc2ccc(C)cc2)N(CC(C)C)C(=O)[C@@H]2CCN2C(=O)[C@H](C)N(C)C1=O [PP0056] ([NMeL]I[NMeA][Aze][X18][Sar][hPhe(3-Cl-4-CF3)]P[Ac5c][NMeGly(cPent)][NMeD]-Morpholide; lactam N-11) | 2.9 nM | C (A compound having a KD ratio of 0.1 or more and less than 3 is denoted as C) | B (a compound having 3 or more and less than 10 is denoted as B) |
| CCCN1C(=O)[C@@H]2CCN2C(=O)[C@H](C)N(C)C(=O)[C@H]([C@@H](C)CC)NC(=O)[C@H](CC(C)C)N(C)C(=O)C[C@@H](C(=O)N2CCOCC2)N(C)C(=O)[C@H](C2CCCC2)N(C)C(=O)C2(CCCC2)NC(=O)[C@@H]2CCCN2C(=O)[C@H](CCc2ccc(C(F)(F)F)c(Cl)c2)NC(=O)CN(CC)C(=O)[C@@H]1Cc1ccc(C)cc1 [PP0058] ([NMeL]I[NMeA][Aze][NPrPhe(4-Me)][NEtG][hPhe(3-Cl-4-CF3)]P[Ac5c][NMeGly(cPent)][NMeD]-Morpholide; lactam N-11) | 2 nM | C (A compound having a KD ratio of 0.1 or more and less than 3 is denoted as C) | C (A compound having a KD ratio of 0.1 or more and less than 3 is denoted as C) |
| CCCN1C(=O)CN(C)C(=O)CN(C)C(=O)[C@H]([C@@H](C)CC)NC(=O)[C@H](CC(C)C)N(C)C(=O)C[C@@H](C(=O)N2CCOCC2)N(C)C(=O)[C@H](C2CCCC2)N(C)C(=O)C2(CCCC2)NC(=O)[C@@H]2CCCN2C(=O)[C@H](CCc2ccc(C(F)(F)F)c(Cl)c2)NC(=O)CN(C)C(=O)[C@@H]1C1CCCC1 [PP0061] ([NMeL]I[Sar][Sar][X3][Sar][hPhe(3-Cl-4-CF3)]P[Ac5c][NMeGly(cPent)][NMeD]-Morpholide; lactam N-11) | 3.8 nM | B (a compound having 3 or more and less than 10 is denoted as B) | C (A compound having a KD ratio of 0.1 or more and less than 3 is denoted as C) |
| CC[C@H](C)[C@@H]1NC(=O)[C@H](CC(C)C)N(C)C(=O)C[C@@H](C(=O)N2CCOCC2)N(C)C(=O)[C@H](C2CCCC2)N(C)C(=O)C2(CCCC2)NC(=O)[C@@H]2CCCN2C(=O)[C@H](CCc2ccc(C(F)(F)F)c(Cl)c2)NC(=O)CN(C)C(=O)[C@H](Cc2ccc(C)cc2)N(CC(C)C)C(=O)CN(C)C(=O)CN(C)C1=O [PP0063] ([NMeL]I[Sar][Sar][X18][Sar][hPhe(3-Cl-4-CF3)]P[Ac5c][NMeGly(cPent)][NMeD]-Morpholide; lactam N-11) | 2.9 nM | C (A compound having a KD ratio of 0.1 or more and less than 3 is denoted as C) | C (A compound having a KD ratio of 0.1 or more and less than 3 is denoted as C) |
| CC[C@H](C)[C@@H]1NC(=O)[C@H](CC(C)C)N(C)C(=O)C[C@@H](C(=O)N2CCOCC2)N(C)C(=O)[C@H](C2CCCC2)N(C)C(=O)C2(CCCC2)NC(=O)[C@@H]2CCCN2C(=O)[C@H](CCc2ccc(C(F)(F)F)c(Cl)c2)NC(=O)CN(C)C(=O)[C@H](Cc2ccc(C)cc2)N(CC2CC2)C(=O)CN(C)C(=O)CN(C)C1=O [PP0064] ([NMeL]I[Sar][Sar][X21][Sar][hPhe(3-Cl-4-CF3)]P[Ac5c][NMeGly(cPent)][NMeD]-Morpholide; lactam N-11) | 0.42 nM | C (A compound having a KD ratio of 0.1 or more and less than 3 is denoted as C) | C (A compound having a KD ratio of 0.1 or more and less than 3 is denoted as C) |

Now those with a lower Kd [3], led by results:

| Kd [3] | Compound | NRAS/KRAS (ratio of KD value for NRAS to KD value for KRAS) [1] | HRAS/KRAS (ratio of KD value for HRAS to KD value for KRAS) [2] |
| --- | --- | --- | --- |
| 0.12 nM | CCCN1C(=O)[C@@H]2CCN2C(=O)[C@H](C)N(C)C(=O)[C@H]([C@@H](C)CC)NC(=O)[C@H](CC(C)C)N(C)C(=O)C[C@@H](C(=O)N2CCOCC2)N(C)C(=O)[C@H](C2CCCC2)N(C)C(=O)C2(CCCC2)NC(=O)[C@@H]2CCCN2C(=O)[C@H](CCc2ccc(C(F)(F)F)c(Cl)c2)NC(=O)CN(C)C(=O)[C@@H]1Cc1ccc(C)cc1 [PP0052] ([NMeL]I[NMeA][Aze][NPrPhe(4-Me)][Sar][hPhe(3-Cl-4-CF3)]P[Ac5c][NMeGly(cPent)][NMeD]-Morpholide; lactam N-11) | C (A compound having a KD ratio of 0.1 or more and less than 3 is denoted as C) | B (a compound having 3 or more and less than 10 is denoted as B) |
| 0.12 nM | CCCN1C(=O)[C@@H]2CCN2C(=O)[C@H](C)N(C)C(=O)[C@H]([C@@H](C)CC)NC(=O)[C@H](CC(C)C)N(C)C(=O)C[C@@H](C(=O)N2CCOCC2)N(C)C(=O)[C@H](C2CCCC2)N(C)C(=O)C2(CCCC2)NC(=O)[C@@H]2CCCN2C(=O)[C@H](CCc2ccc(C(F)(F)F)c(Cl)c2)NC(=O)CN(C)C(=O)[C@@H]1Cc1ccc(C(F)(F)F)cc1 [PP0053] ([NMeL]I[NMeA][Aze][NPrPhe(4-CF3)][Sar][hPhe(3-Cl-4-CF3)]P[Ac5c][NMeGly(cPent)][NMeD]-Morpholide; lactam N-11) | C (A compound having a KD ratio of 0.1 or more and less than 3 is denoted as C) | C (A compound having a KD ratio of 0.1 or more and less than 3 is denoted as C) |
| 0.21 nM | CC[C@H](C)[C@@H]1NC(=O)[C@H](CC(C)C)N(C)C(=O)C[C@@H](C(=O)N2CCOCC2)N(C)C(=O)[C@H](C2CCCC2)N(C)C(=O)C2(CCCC2)NC(=O)[C@@H]2CCCN2C(=O)[C@H](CCc2ccc(C(F)(F)F)c(Cl)c2)NC(=O)CN(C)C(=O)[C@H](Cc2ccc(C)cc2)N(CC2CC2)C(=O)[C@@H]2CCN2C(=O)[C@H](C)N(C)C1=O [PP0057] ([NMeL]I[NMeA][Aze][X21][Sar][hPhe(3-Cl-4-CF3)]P[Ac5c][NMeGly(cPent)][NMeD]-Morpholide; lactam N-11) | C (A compound having a KD ratio of 0.1 or more and less than 3 is denoted as C) | B (a compound having 3 or more and less than 10 is denoted as B) |
| 0.15 nM | CCCN1C(=O)CN(C)C(=O)CN(C)C(=O)[C@H]([C@@H](C)CC)NC(=O)[C@H](CC(C)C)N(C)C(=O)C[C@@H](C(=O)N2CCOCC2)N(C)C(=O)[C@H](C2CCCC2)N(C)C(=O)C2(CCCC2)NC(=O)[C@@H]2CCCN2C(=O)[C@H](CCc2ccc(C(F)(F)F)c(Cl)c2)NC(=O)CN(C)C(=O)[C@@H]1Cc1ccc(C)cc1 [PP0059] ([NMeL]I[Sar][Sar][NPrPhe(4-Me)][Sar][hPhe(3-Cl-4-CF3)]P[Ac5c][NMeGly(cPent)][NMeD]-Morpholide; lactam N-11) | B (a compound having 3 or more and less than 10 is denoted as B) | C (A compound having a KD ratio of 0.1 or more and less than 3 is denoted as C) |
| 0.099 nM | CCCN1C(=O)CN(C)C(=O)CN(C)C(=O)[C@H]([C@@H](C)CC)NC(=O)[C@H](CC(C)C)N(C)C(=O)C[C@@H](C(=O)N2CCOCC2)N(C)C(=O)[C@H](C2CCCC2)N(C)C(=O)C2(CCCC2)NC(=O)[C@@H]2CCCN2C(=O)[C@H](CCc2ccc(C(F)(F)F)c(Cl)c2)NC(=O)CN(C)C(=O)[C@@H]1Cc1ccc(C(F)(F)F)cc1 [PP0060] ([NMeL]I[Sar][Sar][NPrPhe(4-CF3)][Sar][hPhe(3-Cl-4-CF3)]P[Ac5c][NMeGly(cPent)][NMeD]-Morpholide; lactam N-11) | B (a compound having 3 or more and less than 10 is denoted as B) | B (a compound having 3 or more and less than 10 is denoted as B) |
| 0.21 nM | CCCCN1C(=O)CN(C)C(=O)CN(C)C(=O)[C@H]([C@@H](C)CC)NC(=O)[C@H](CC(C)C)N(C)C(=O)C[C@@H](C(=O)N2CCOCC2)N(C)C(=O)[C@H](C2CCCC2)N(C)C(=O)C2(CCCC2)NC(=O)[C@@H]2CCCN2C(=O)[C@H](CCc2ccc(C(F)(F)F)c(Cl)c2)NC(=O)CN(C)C(=O)[C@@H]1Cc1ccc(C)cc1 [PP0062] ([NMeL]I[Sar][Sar][X46][Sar][hPhe(3-Cl-4-CF3)]P[Ac5c][NMeGly(cPent)][NMeD]-Morpholide; lactam N-11) | C (A compound having a KD ratio of 0.1 or more and less than 3 is denoted as C) | C (A compound having a KD ratio of 0.1 or more and less than 3 is denoted as C) |
